Tested on: 991263-137-R1-J2-PDC complex spheroid viability
Experiment: Anticancer human tumor 991263-137-R1-J2-PDC patient-derived colon adenocarcinoma cell line growth inhibition [POLQ]
Details: for IC50: curve of first compound; for viability, T/C: stronger effect = lower value
Procedure: Multicellular complex tumor spheroid response to Polymerase (POL) inhibitors (novobiocin, ART-558, RP6685) in combination with a variety of drugs and investigational agents in selected tumor cell lines
The POL inhibitors (novobiocin, ART-558, and RP6685) were evaluated both individually and in combination with standard of care and investigational anticancer small molecules within a complex spheroid model of solid tumors. . Complex spheroids include a stromal component modeled by human endothelial cells (HUVEC) and fibroblasts modeled by human mesenchymal stem cells (MSCs). The concentration ranges selected for each drug and investigational agent were based upon clinically achievable concentrations if the clinical Cmax of the agent was known.
Compounds. The drugs and investigational agents: novobiocin (NSC847541), ART-558 (NSC835418), RP-6685 (NSC848927), peposertib (NSC802822), ceralasertib (NSC780249), elimusertib (NSC800525), camonsertib (NSC841442), AZD-1390 (NSC803789), olaparib (NSC753686), talazoparib (NSC767125), rucaparib (NSC756644), sotorasib (NSC818433), MRTX-1133 (NSC836407), SN-38 (NSC673596), topotecan (NSC609699), epotoside (NSC141540), doxorubicin (NSC123127), gemcitabine (NSC613327), 5-fluorouracil (NSC19893), paclitaxel (NSC125973), vemurafenib (NSC761431), MSA-2 (NSC828583), SN-011 (NSC837082), adavosertib (NSC754352), prexasertib (NSC758257), carboplatin (NSC241240) and oxaliplatin (NSC266046), were obtained from the National Cancer Institute (NCI) Developmental Therapeutics Program Chemical Repository (21). The FDA-approved anticancer drug set is available from the Developmental Therapeutics Program at https://dtp.cancer.gov/organization/dscb/obtaining/. […] The stock solutions were prepared in dimethyl sulfoxide (DMSO, Sigma-Aldrich, St. Louis, MO, cat. D2650), except for the platinum compounds which were prepared in saline (Quality Biological, Gaithersburg, MD, cat. 114-055-101), at 800-fold the tested concentration and stored at -70 degrees C prior to their use. All drugs and investigational agents were tested over a range starting from a high concentration at or near the clinical Cmax and decreasing in half-log increments. If the clinical Cmax for an agent had not been determined, the highest concentration tested was 10 microM, except for SN-38, which was tested at a high concentration of 1 microM.
Cell Culture. All cells were maintained in an incubator at 37 degrees C and 5% CO2 with 95% humidity. The PDC lines were cultured according to standard operating procedures established by the NCI PDMR (https://pdmr.cancer.gov). Table 3 of the manuscript, lists the cell lines along with the number of the three cell types plated to form the mct-spheroids and media for tumor cell growth. After thawing, all PDC lines, except 997537-175-T-J1-PDC and 415267-285-R-J2-PDC, were cultured in Matrigel-coated flasks prepared with a working solution of 1X Ham's F-12 nutrient mix, without supplementation (Thermo Fisher Scientific, cat. 11765054), 100 U/mL penicillin-streptomycin (Thermo Fisher Scientific, cat. 15140122), and 2.5% Matrigel (Corning Inc., Corning, NY, cat. 354248) for the first three passages. The two PDC lines 997537-175-T-J1-PDC and 415267-285-R-J2-PDC were cultured on uncoated flasks. The 857933-349-R-J2-PDC line was cultured in 6C/Colon 1B media containing advanced DMEM/F-12 (Thermo Fisher Scientific, cat. 12634028), 10 mM HEPES (Thermo Fisher Scientific, cat. 15630080), 1X GlutaMAX supplement (Thermo Fisher Scientific, cat. 35050061), 0.1 mg/mL primocin (InvivoGen, San Diego, CA, cat. ant-pm-2), 10% defined fetal bovine serum, heat inactivated (HyClone Laboratories Inc., Logan, UT, cat. SH30070.03HI), 50% L-WRN conditioned media (ATCC, cat. CRL-3276), 1.25 mM N-Acetyl-L-cysteine (Sigma-Aldrich, cat. A9165), 10 mM nicotinamide (Sigma-Aldrich, cat. N0636), 1X B-27 supplement (Thermo Fisher Scientific, cat. 17504044), 1X N-2 supplement (Thermo Fisher Scientific, cat. […]

[1] = second compound 0.0316 µM, first compound 0.0316 µM
[2] = second compound 0.0316 µM, first compound 0.1 µM
[3] = second compound 0.0316 µM, first compound 0.316 µM
[4] = second compound 0.0316 µM, first compound 1 µM
[5] = second compound 0.1 µM, first compound 0.0316 µM
[6] = second compound 0.1 µM, first compound 0.1 µM
[7] = second compound 0.1 µM, first compound 0.316 µM
[8] = second compound 0.1 µM, first compound 1 µM
[9] = second compound 0.316 µM, first compound 0.0316 µM
[10] = second compound 0.316 µM, first compound 0.1 µM
[11] = second compound 0.316 µM, first compound 0.316 µM
[12] = second compound 0.316 µM, first compound 1 µM
[13] = second compound 1 µM, first compound 0.0316 µM
[14] = second compound 1 µM, first compound 0.1 µM
[15] = second compound 1 µM, first compound 0.316 µM
[16] = second compound 1 µM, first compound 1 µM
[17] = second compound 3.16 µM, first compound 0.0316 µM
[18] = second compound 3.16 µM, first compound 0.1 µM
[19] = second compound 3.16 µM, first compound 0.316 µM
[20] = second compound 3.16 µM, first compound 1 µM
[21] = second compound 10 µM, first compound 0.0316 µM
[22] = second compound 10 µM, first compound 0.1 µM
[23] = second compound 10 µM, first compound 0.316 µM
[24] = second compound 10 µM, first compound 1 µM
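Also: spheroids exposed to compounds for 7 days before readout.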
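For viability, T/C in this document: 100% = DMSO vehicle control viability.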

Which IC50 (second compound 0.0316 µM) does the source give for `CCc1c2c(nc3ccc(O)cc13)-c1cc3c(c(=O)n1C2)COC(=O)[C@]3(O)CC` + Cc1cccc(N(C)C(=O)C2C(O)CCN2c2nc(C)cc(C(F)(F)F)c2C#N)c1 here?
Its IC50 is 67 nM.

What about the IC50 (second compound 0.1 µM) of the same molecule?
Its IC50 is 100 nM.

And the IC50 (second compound 0.316 µM)?
Its IC50 is 175 nM.

And the IC50 (second compound 1 µM)?
The IC50 was 72.3 nM.

And the IC50 (second compound 3.16 µM)?
Its IC50 is 105 nM.

And the IC50 (second compound 10 µM)?
Its IC50 is 153 nM.

What about the viability, T/C (second compound 0.0316 µM, first compound 0.00316 µM) of the same molecule?
Its viability, T/C is 103%.

And the viability, T/C (second compound 0.0316 µM, first compound 0.01 µM)?
Its viability, T/C is 91.3%.

What about the viability, T/C [1] of the same molecule?
The viability, T/C was 48.6%.

And the viability, T/C [2]?
Its viability, T/C is 53.7%.

What about the viability, T/C [3] of the same molecule?
The viability, T/C was 36.3%.

And the viability, T/C [4]?
The viability, T/C was 27.8%.

And the viability, T/C (second compound 0.1 µM, first compound 0.00316 µM)?
The viability, T/C was 96.7%.

What about the viability, T/C (second compound 0.1 µM, first compound 0.01 µM) of the same molecule?
The viability, T/C was 119%.

What about the viability, T/C [5] of the same molecule?
Its viability, T/C is 67.2%.

What about the viability, T/C [6] of the same molecule?
Its viability, T/C is 57.1%.

What about the viability, T/C [7] of the same molecule?
The viability, T/C was 36.1%.

What about the viability, T/C [8] of the same molecule?
The viability, T/C was 28.4%.

And the viability, T/C (second compound 0.316 µM, first compound 0.00316 µM)?
The viability, T/C was 97.6%.

And the viability, T/C (second compound 0.316 µM, first compound 0.01 µM)?
Its viability, T/C is 96%.

What about the viability, T/C [9] of the same molecule?
The viability, T/C was 73.4%.

What about the viability, T/C [10] of the same molecule?
Its viability, T/C is 60.1%.

What about the viability, T/C [11] of the same molecule?
Its viability, T/C is 41%.

What about the viability, T/C [12] of the same molecule?
Its viability, T/C is 33.6%.

And the viability, T/C (second compound 1 µM, first compound 0.00316 µM)?
The viability, T/C was 111%.

What about the viability, T/C (second compound 1 µM, first compound 0.01 µM) of the same molecule?
Its viability, T/C is 111%.

What about the viability, T/C [13] of the same molecule?
The viability, T/C was 64.3%.

What about the viability, T/C [14] of the same molecule?
The viability, T/C was 50.6%.

And the viability, T/C [15]?
The viability, T/C was 48.7%.

And the viability, T/C [16]?
Its viability, T/C is 32.5%.

And the viability, T/C (second compound 3.16 µM, first compound 0.00316 µM)?
The viability, T/C was 109%.

What about the viability, T/C (second compound 3.16 µM, first compound 0.01 µM) of the same molecule?
The viability, T/C was 92.5%.

What about the viability, T/C [17] of the same molecule?
Its viability, T/C is 70.4%.

What about the viability, T/C [18] of the same molecule?
The viability, T/C was 53.5%.

And the viability, T/C [19]?
The viability, T/C was 33.9%.

What about the viability, T/C [20] of the same molecule?
Its viability, T/C is 36.6%.

What about the viability, T/C (second compound 10 µM, first compound 0.00316 µM) of the same molecule?
Its viability, T/C is 108%.

What about the viability, T/C (second compound 10 µM, first compound 0.01 µM) of the same molecule?
Its viability, T/C is 81.5%.

And the viability, T/C [21]?
Its viability, T/C is 67.9%.

And the viability, T/C [22]?
The viability, T/C was 53.2%.

And the viability, T/C [23]?
Its viability, T/C is 46.2%.

And the viability, T/C [24]?
The viability, T/C was 24.5%.

What does the source list for `COc1ccc([C@@H](O)c2cc(-c3ncnc4cc(N5CCOCC5)ccc34)c(F)cc2Cl)nn1` + Cc1cccc(N(C)C(=O)C2C(O)CCN2c2nc(C)cc(C(F)(F)F)c2C#N)c1?
IC50 (second compound 0.0316 µM): 2600 nM; IC50 (second compound 0.1 µM): 5780 nM; IC50 (second compound 0.316 µM): 5970 nM; IC50 (second compound 1 µM): 6200 nM; IC50 (second compound 3.16 µM): 5680 nM; IC50 (second compound 10 µM): 3760 nM; viability, T/C [1]: 101%; viability, T/C [2]: 88.1%; viability, T/C [3]: 93.3%; viability, T/C [4]: 110%; viability, T/C (second compound 0.0316 µM, first compound 3.16 µM): 40.1%; viability, T/C (second compound 0.0316 µM, first compound 10 µM): 27.1%; viability, T/C [5]: 116%; viability, T/C [6]: 104%; viability, T/C [7]: 98.1%; viability, T/C [8]: 88%; viability, T/C (second compound 0.1 µM, first compound 3.16 µM): 76.4%; viability, T/C (second compound 0.1 µM, first compound 10 µM): 29.3%; viability, T/C [9]: 103%; viability, T/C [10]: 103%; viability, T/C [11]: 84.9%; viability, T/C [12]: 87.5%; viability, T/C (second compound 0.316 µM, first compound 3.16 µM): 68.9%; viability, T/C (second compound 0.316 µM, first compound 10 µM): 34.9%; viability, T/C [13]: 99.5%; viability, T/C [14]: 114%; viability, T/C [15]: 75.2%; viability, T/C [16]: 89%; viability, T/C (second compound 1 µM, first compound 3.16 µM): 76.3%; viability, T/C (second compound 1 µM, first compound 10 µM): 33.1%; viability, T/C [17]: 97.5%; viability, T/C [18]: 92.8%; viability, T/C [19]: 77.9%; viability, T/C [20]: 79.5%; viability, T/C (second compound 3.16 µM, first compound 3.16 µM): 75.5%; viability, T/C (second compound 3.16 µM, first compound 10 µM): 29.4%; viability, T/C [21]: 85.3%; viability, T/C [22]: 117%; viability, T/C [23]: 86%; viability, T/C [24]: 90.5%; viability, T/C (second compound 10 µM, first compound 3.16 µM): 53.2%; viability, T/C (second compound 10 µM, first compound 10 µM): 30%

— PubChem BioAssay AID1963828 (Molecular Pharmacology Branch, DTP, NCI, 2024)
